We go through 37 molecules from patent US20240383852A1, “ANTI-VIRAL COMPOUNDS” (INFEX Therapeutics Limited, priority 2021, published 2024).

Where a name gives a salt, the structure may show the parent alone.

As usually defined, the IC50 is the concentration that gives 50% inhibition.

For this test, the target named is T1, SARS-CoV-2 PLpro (Severe acute respiratory syndrome coronavirus 2, UniProt P0DTD1).
T1 construct: containing 60 nM papain-like protease
The experiment in a line: biochemical. Particulars: 60 nM papain-like protease, 50 μM Z-RLRGG-AMC, pH 7.5, 37° C.; read-out: SARS-CoV-2 PLpro IC50.
For `Cc1ccc(N2CC[C@H](O)C2)cc1C(=O)N[C@H](C)c1cccc2ccccc12` [Example 119, 5-[(3S)-3-Hydroxypyrrolidin-1-yl]-2-methyl-N-[(1R)-1-(1-naphthyl)ethyl]benzamide], the IC50 was under 100 µM.
As to `C[C@@H](NC(=O)c1cc(N2CCNC(C(F)(F)F)C2)ccc1Cl)c1cccc2ccccc12` (stereo partly drawn) [Example 132, 2-Chloro-N-[(1R)-1-(1-naphthyl)ethyl]-5-[3-(trifluoromethyl)piperazin-1-yl]benzamide], the IC50 was under 100 µM.
Then `C[C@@H](NC(=O)c1ccnc(N2CCN(C)CC2)n1)c1cccc2ccccc12` [Example 316, 2-(4-Methylpiperazin-1-yl)-N-[(1R)-1-(1-naphthyl)ethyl]pyrimidine-4-carboxamide Hydrochloride Salt], with under 100 µM; and `Cc1ccc(-c2cccc(CCO)c2)cc1C(=O)N[C@H](C)c1cccc2ccccc12` [Example 142, 5-[3-(2-Hydroxyethyl)phenyl]-2-methyl-N-[(1R)-1-(1-naphthyl)ethyl]benzamide], with over 100 µM; and `C[C@@H](NC(=O)c1cccc(-c2ccnc(N3CCOCC3)n2)c1)c1cccc2ccccc12` [Example 138, 3-(2-Morpholinopyrimidin-4-yl)-N-[(1R)-1-(1-naphthyl)ethyl]benzamide], with over 100 µM.
As for `C[C@@H](NC(=O)c1cccc(C(=O)NCCN(C)C)c1)c1cccc2ccccc12` [Example 174, N1-[2-(Dimethylamino)ethyl]-N3-[(1R)-1-(1-naphthyl)ethyl]benzene-1,3-dicarboxamide], the IC50 is under 100 µM.
Next, `COc1ccc([C@@H](C)NC(=O)c2cc(N3CC4(CNC4)C3)ccc2C)cc1OC` [Example 37, 5-(2,6-Diazaspiro[3.3]heptan-2-yl)-N-[(1R)-1-(3,4-dimethoxyphenyl)ethyl]-2-methyl-benzamide]: under 20 µM.
Next, `Cc1ccc(N2CCN(C)CC2)cc1C(=O)N[C@H](C)c1cc(OCCO)cc(-c2cnn(C)c2)c1` [Example 281, N-[(1R)-1-[3-(2-Hydroxyethoxy)-5-(1-methylpyrazol-4-yl)phenyl]ethyl]-2-methyl-5-(4-methylpiperazin-1-yl)benzamide]: under 2 µM.
`Cc1ccc(N2CCN(C)CC2)cc1C(=O)N[C@H](C)c1cc(OC(C)C)cc(-c2cnn(C)c2)c1` [Example 279, N-[(1R)-1-[3-Isopropoxy-5-(1-methylpyrazol-4-yl)phenyl]ethyl]-2-methyl-5-(4-methylpiperazin-1-yl)benzamide]: the IC50 was under 2 µM.
On to `Cc1ccc(N2CCN(C)CC2)cc1C(=O)N(C)[C@H](C)c1cccc2ccccc12` [Example 35, N,2-Dimethyl-5-(4-methylpiperazin-1-yl)-N-[(1R)-1-(1-naphthyl)ethyl]benzamide], for which the IC50 is under 100 µM.
`C[C@@H](NC(=O)c1cccc(C2CCN(CCS(C)(=O)=O)CC2)c1)c1cccc2ccccc12` [Example 176, 3-[1-(2-Methylsulfonylethyl)-4-piperidyl]-N-[(1R)-1-(1-naphthyl)ethyl]benzamide]: the IC50 was under 100 µM.
Regarding `CC(=O)N1CCC(c2cccc(C(=O)N[C@H](C)c3cccc4ccccc34)c2)CC1` [Example 7, 3-(1-Acetyl-4-piperidyl)-N-[(1R)-1-(1-naphthyl)ethyl]benzamide], the IC50 is over 100 µM.
On to `C[C@@H](NC(=O)c1cccc(C2CCN(CCS(=O)(=O)c3ccccc3)CC2)c1)c1cccc2ccccc12` [Example 175, 3-[1-[2-(Benzenesulfonyl)ethyl]-4-piperidyl]-N-[(1R)-1-(1-naphthyl)ethyl]benzamide], for which the IC50 was over 100 µM.
In the case of `Cc1ccc(N2CCN(S(C)(=O)=O)CC2)cc1C(=O)N[C@H](C)c1cccc2ccccc12` [Example 110, 2-Methyl-5-(4-methylsulfonylpiperazin-1-yl)-N-[(1R)-1-(1-naphthyl)ethyl]benzamide], the IC50 was over 100 µM.
Consider `Cc1ccc(N2CCN(C)CC2)cc1C(=O)N[C@H](C)c1cccs1` [Example 191, 2-Methyl-5-(4-methylpiperazin-1-yl)-N-[(1R)-1-(2-thienyl)ethyl]benzamide hydrochloride salt], for which the IC50 was under 100 µM.
With `C[C@@H](NC(=O)c1cncc(N2CCN(C)CC2)n1)c1cccc2ccccc12` [Example 320, 6-(4-Methylpiperazin-1-yl)-N-[(1R)-1-(1-naphthyl)ethyl]pyrazine-2-carboxamide Hydrochloride Salt], the IC50 is under 100 µM.
Regarding `Cc1ccc(N2CCN(C)CC2)cc1C(=O)N[C@H](C)c1cnn(C)c1` [Example 127, 2-Methyl-5-(4-methylpiperazin-1-yl)-N-[(1R)-1-(1-methylpyrazol-4-yl)ethyl]benzamide], the IC50 is under 100 µM.
As to `C[C@@H](NC(=O)c1cc(-c2ccc(C3CCNCC3)cc2)cn1C)c1cccc2ccccc12` [Example 151, 1-Methyl-N-[(1R)-1-(1-naphthyl)ethyl]-4-[4-(4-piperidyl)phenyl]pyrrole-2-carboxamide], the IC50 is over 100 µM.
Take `Cc1ccc(-c2cccc(S(=O)(=O)N3CCNCC3)c2)cc1C(=O)N[C@H](C)c1cccc2ccccc12` [Example 152, 2-Methyl-N-[(1R)-1-(1-naphthyl)ethyl]-5-(3-piperazin-1-ylsulfonylphenyl)benzamide]: the IC50 is under 100 µM.
Then `C[C@@H](NC(=O)c1cccc(C(=O)N2CCN(C)CC2)c1)c1cccc2ccccc12` [Example 173, 3-(4-Methylpiperazine-1-carbonyl)-N-[(1R)-1-(1-naphthyl)ethyl]benzamide], with over 100 µM; and `Cc1ccc(N2CCN(C)CC2)cc1C(=O)N[C@H](C)c1cncc(Br)c1` [Example 193, N-[(1R)-1-(5-Bromo-3-pyridyl)ethyl]-2-methyl-5-(4-methylpiperazin-1-yl)benzamide], with under 100 µM; and `COc1c(Br)cccc1[C@@H](C)NC(=O)c1cc(N2CCN(C)CC2)ccc1C` [Example 194, N-[(1R)-1-(3-Bromo-2-methoxy-phenyl)ethyl]-2-methyl-5-(4-methylpiperazin-1-yl)benzamide], with under 100 µM.
Next, `Cc1ccc(N2CCN(C)CC2)cc1C(=O)N[C@H](C)c1cccc(S(C)(=O)=O)c1` [Example 38, 2-Methyl-5-(4-methylpiperazin-1-yl)-N-[(1R)-1-(3-methylsulfonylphenyl)ethyl] benzamide]: under 20 µM; `COc1cc(-c2cn(C)nc2C)cc([C@@H](C)NC(=O)c2cc(C3CCNCC3)ccc2C)c1` [Example 304, N-[(1R)-1-[3-(1,3-Dimethylpyrazol-4-yl)-5-methoxy-phenyl]ethyl]-2-methyl-5-(4-piperidyl)benzamide]: under 2 µM.
As for `Cc1ccc(N2CCN(C)CC2)cc1C(=O)N[C@H](C)c1cc(OC(F)F)cc(-c2cnn(C)c2)c1` [Example 283, N-[(1R)-1-[3-(Difluoromethoxy)-5-(1-methylpyrazol-4-yl)phenyl]ethyl]-2-methyl-5-(4-methylpiperazin-1-yl)benzamide], the IC50 is under 2 µM.
Take `Cc1ccc(N2CCN(C)CC2)cc1C(=O)N[C@H](C)c1cc(Cl)cc(-c2cnn(C)c2)c1` [Example 257, N-[(1R)-1-[3-Chloro-5-(1-methylpyrazol-4-yl)phenyl]ethyl]-2-methyl-5-(4-methylpiperazin-1-yl)benzamide]: the IC50 was under 2 µM.
For `Cc1ccc(N2CCN(C)CC2)cc1C(=O)N[C@H](C)c1cccc(CCC(=O)O)c1` [Example 82, 3-[3-[(1R)-1-[[2-Methyl-5-(4-methylpiperazin-1-yl)benzoyl]amino]ethyl]phenyl] propanoic Acid], the IC50 was under 100 µM.
On to `C[C@@H](NC(=O)c1cccc(C2CCN(CCC(=O)O)CC2)c1)c1cccc2ccccc12` [Example 164, 3-[4-[3-[[(1R)-1-(1-Naphthyl)ethyl]carbamoyl]phenyl]-1-piperidyl]propanoic acid], for which the IC50 was under 100 µM.
For the molecule `Cc1ccc(N2CCN(C(=O)OC(C)(C)C)CC2)cc1C(=O)N[C@H](C)c1cccc2ccccc12` [Example 28, tert-Butyl 4-[4-methyl-3-[(1R)-1-(1-naphthyl)ethyl]carbamoyl]phenyl]piperazine-1-carboxylate], the IC50 is under 100 µM.
As to `Cc1ccc(N2CCN(C)CC2)cc1C(=O)N[C@H](C)c1cccc2c1OCCO2` [Example 183, N-[(1R)-1-(2,3-Dihydro-1,4-benzodioxin-5-yl)ethyl]-2-methyl-5-(4-methylpiperazin-1-yl)benzamide], the IC50 is under 20 µM.
Regarding `C[C@@H](NC(=O)c1cc(-c2ccc(CN3CCN(C)CC3)cc2)ccc1Cl)c1cccc2ccccc12` [Example 145], the IC50 was under 100 µM.
For `Cc1ccc(N2CCN(C)CC2)cc1C(=O)N[C@H](C)c1cccc(C(=O)N2CCN(C)CC2)c1` [Example 307, 2-Methyl-N-[(1R)-1-[3-(4-methylpiperazine-1-carbonyl)phenyl]ethyl]-5-(4-methylpiperazin-1-yl)benzamide], the 50% inhibitory concentration (IC50) was under 2 µM.
Take `Cc1ccc(-c2cccc(CCN3CCOCC3)c2)cc1C(=O)N[C@H](C)c1cccc2ccccc12` [Example 141, 2-Methyl-5-[3-(2-morpholinoethyl)phenyl]-N-[(1R)-1-(1-naphthyl)ethyl]benzamide]: the IC50 was over 100 µM.
`Cc1ccc(N2CCN(C)CC2)cc1C(=O)N[C@H](C)c1cccc(-c2cccc(C(=O)O)c2)c1` [Example 83, 3-[3-[(1R)-1-[[2-Methyl-5-(4-methylpiperazin-1-yl)benzoyl]amino]ethyl]phenyl]benzoic Acid]: the IC50 was under 5 µM.
Take `C[C@@H](NC(=O)c1cc(C2=CCNC2)cn1C)c1cccc2ccccc12` [Example 149, 4-(2,5-Dihydro-1H-pyrrol-3-yl)-1-methyl-N-[(1R)-1-(1-naphthyl)ethyl]pyrrole-2-carboxamide Hydrochloride Salt]: the IC50 is under 100 µM.
For the molecule `Cc1ccc(N2CCN(C)CC2)cc1C(=O)N[C@H](C)c1cccc(C(=O)NCCO)c1` [Example 313, N-[(1R)-1-[3-(2-Hydroxyethylcarbamoyl)phenyl]ethyl]-2-methyl-5-(4-methylpiperazin-1-yl)benzamide], the IC50 was under 20 µM.
Take `C[C@@H](NC(=O)c1cc(C2CCNC2)cn1C)c1cccc2ccccc12` (stereo partly drawn) [Example 150, 1-Methyl-N-[(1R)-1-(1-naphthyl)ethyl]-4-pyrrolidin-3-yl-pyrrole-2-carboxamide]: the IC50 was under 100 µM.
